From patent US20070231874A1, “Crystal of glucokinase protein, and method for drug design using the crystal” (priority 2002, published 2007)

Molecular target: T1, glucokinase (Homo sapiens, UniProt P35557)
T1 sequence (P35557 1-466 isoform P35557-2): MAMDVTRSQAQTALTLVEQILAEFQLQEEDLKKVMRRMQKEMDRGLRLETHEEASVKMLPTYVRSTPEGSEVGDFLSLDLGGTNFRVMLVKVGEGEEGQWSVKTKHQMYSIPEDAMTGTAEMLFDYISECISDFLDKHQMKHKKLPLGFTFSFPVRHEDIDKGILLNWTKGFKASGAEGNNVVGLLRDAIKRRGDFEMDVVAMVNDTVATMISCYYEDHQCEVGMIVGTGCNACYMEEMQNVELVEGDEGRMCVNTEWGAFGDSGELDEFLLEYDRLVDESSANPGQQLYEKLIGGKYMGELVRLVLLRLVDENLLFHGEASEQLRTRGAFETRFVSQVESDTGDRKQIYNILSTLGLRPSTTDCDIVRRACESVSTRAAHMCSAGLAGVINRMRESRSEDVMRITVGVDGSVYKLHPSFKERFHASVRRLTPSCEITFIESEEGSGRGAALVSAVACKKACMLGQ
Assay: glucokinase activity assay of compounds found by pharmacophore screening (activation relative to control)
Assay type: biochemical
Conditions: glucose 2.5 M, ligand 10 μM; activity of glucokinase is 100% in the case of control
Source text: Library compounds were screened using, as research conditions, pharmacophore of a hydrogen bond acceptor and hydrogen bond donor generated respectively from NH and CO of a main chain of Arg63, hydrophobic pharmacophore formed in a space corresponding to a phenyl group of an aniline part of a ligand forming a complex, and the protein surface made based on the structure of a protein, by using a software UNITY (manufactured by Tripos), and the following compound 4 and compound 5 were obtained and assayed, to confirm activities of 780% and 560%. An activity of 780% means that when the activity of glucokinase is 100% in the case of control, the activity is enhanced up to 780% by these compound (using glucose 2.5 M, and ligand 10 μM). [drawing 15]

Nc1ccc(Oc2ccccc2)cc1C(=O)Nc1nccs1 [compound 4]
activity of glucokinase (control = 100%): 780%

CCOC(=O)c1csc(NC(=O)c2cc(Sc3ccncc3)ccc2N)n1 [compound 5]
activity of glucokinase (control = 100%): 560%
